Measured values from patent publication US20090220537A1, “VACCINE DELIVERY SYSTEM” (THE UNIVERSITY OF QUEENSLAND, priority 2005, published 2009).

Experiments:
[1] = system: E7-expressing TC-1 tumour cells; type: in vivo; conditions: H-2b mice immunised twice, 2×10^5 TC-1 cells two weeks after second immunisation; within 15 days; FIG. 6C
RSV = type: in vivo, mice

Sequence	Mice that developed tumour [1]	Mean RSV load per ½-lung in mice with detectable infection (RSV; BALB/c mice challenged intranasally with 8×10^5 pfu RSV, lungs 4 days later, immunofocus assay)	Number of mice (%) with detectable RSV in lungs (RSV; BALB/c mice, 5 per group, challenged intranasally with 8×10^5 pfu RSV 3 weeks after immunisation, lungs 4 days later, limit of detection 5×10^2 pfu/lung, listed as M15 peptide+adjuvant)	RSV-specific immunostaining of lung cryosections (RSV; indirect immunofluorescence, 4 days after challenge, FIG. 5)
RAHYNIVTF [RAH peptide+adjuvant]	level of protection was consistent with that observed			
ESYIGSINNITKQSA [M215 peptide + adjuvant]		1.0 × 10^3 pfu	One of five	reduced staining
